# Measured values reported in patent US12240825B2, “Oxexin 1 receptor antagonists” (Heptares Therapeutics Limited, priority 2019, dated 2025).
# Tests used:
# [1] = target: T1, Human OX2 receptor (Homo sapiens (Human), UniProt O43614); assay: [3H]-radioligand binding assay, OX2; details: for pKi average OX2: competition binding, membranes of SF21 cells, Ki by Cheng-Prusoff
# Text: (§1) Cloning, Baculovirus generation, large-scale infection of SF21 cells and membrane preparation. Human OX1 or OX2 receptor were cloned into Invitrogen's (ThermoFisher Scientific, UK) Bac-to-Bac Baculovirus Expression System. P0 baculovirus was generated by transfecting SF9 cells with bacmid DNA using Cellfectin® II transfection reagent (ThermoFisher Scientific, UK, Catalog number 10362-100). Following P0 generation P1 virus was then generated ready for large scale infection and membrane preparation. SF21 cells were grown in expression medium ESF921 (Expression Systems, USA, catalog number 96-001-01) supplemented with 10% heat-inactivated FBS and 1% Pen/Strep and were infected at a cell density of 2.5×10^6 cells/mL and a multiplicity of infection of 1.0 for both human OX1R and OX2R. Incubation was carried out at over 48 h in a shaking incubator set at 27° C. The cell culture was then centrifuged at 2,500 rcf for 10 min at 4° C. The pellets were resuspended in cold PBS supplemented with Roche's Complete EDTA-free protease inhibitor cocktail tablets (Roche Applied Sciences, catalog number 05056489001), 1 mM PMSF and 1 mM EDTA. The resuspended cell paste was then centrifuged at 3,273 rcf for 12 min at 4° C. The supernatant was discarded and the pellet frozen at −80° C. The cell pellet from a 4 L culture was resuspended in buffer containing 50 mM HEPES pH 7.5, 150 mM NaCl, 8 Roche EDTA-Free protease inhibitor cocktail tablets and 1 mM PMSF. The suspension was left stirring at rt for 1 h and then homogenised for 90 s at 9,500 rpm using a VDI 25 (VWR, USA) homogeniser. The cells were then lysed using a Microfluidiser processor M-110L Pneumatic (Microfluidics, USA) at 60 PSI and membranes collected by ultracentrifugation at 204.7 k×g for 1 h. The supernatant was discarded and the pellet was resuspended and homogenised in 90 s at 9,500 rpm in 50 mL (25 mL for each 2 L culture) of buffer containing 50 mM Hepes pH 7.5, 150 mM NaCl, 3 Roche EDTA-free protease inhibitor cocktail tablets and 1 mM PMSF. The resulting membranes were then stored at −80° C.
# (§2) [^3H]-radioligand binding assay. After thawing, membrane homogenates were resuspended in the binding buffer (8.5 mM HEPES, pH 7.4, 1.3 mM CaCl2, 1.2 mM MgSO4, 118 mM NaCl, 4.7 mM KCl, 4 mM NaHCO3, 1.2 mM KH2PO4, 11 mM glucose) to a final assay concentration of 6.4 μg (OX1) or 1.4 μg (OX2) protein per well. Saturation isotherms were determined by the addition of various concentrations (0-30 nM) of [^3H]-4-(2,6-difluoro-4-methoxybenzyl)-2-(5,6-dimethoxypyridin-3-yl)-2H-1,2,4-benzothiadiazin-3(4H)-one 1,1-dioxide (Christopher et al, MedChemComm., 2015, 6, 947-955) in a total reaction volume of 250 μL for 90 min at rt. At the end of the incubation, membranes were filtered onto a 96-well GF/B filter pre-incubated with 0.5% polyethylenimine, with a Tomtec cell harvester and washed 5 times with 0.5 mL distilled water. Non-specific binding (NSB) was measured in the presence of 3.33 μM [4-(5-chloro-1,3-benzoxazol-2-yl)-7-methyl-1,4-diazepan-1-yl][5-methyl-2-(2H-1,2,3-triazol-2-yl)phenyl]methanone (Wertz et al, Angew. Chem. Int. Ed., 2011, 50, 11511-11515). Radioactivity on the filter was counted (1 min) on a Microbeta radiometric plate counter (Perkin Elmer) after addition of 50 μL of scintillation fluid (LabLogic: Part #SG-BXX-14). […] IC50 values were derived from the inhibition curve and the equilibrium dissociation constant (Ki) values were calculated using the Cheng-Prusoff equation.
# [2] = target: T2, Human OX1 receptor (Homo sapiens (Human), UniProt O43613); assay: [3H]-radioligand binding assay, OX1; details: for pKi average OX1: competition binding, membranes of SF21 cells, Ki by Cheng-Prusoff
# T2 sequence (O43613 whole entry): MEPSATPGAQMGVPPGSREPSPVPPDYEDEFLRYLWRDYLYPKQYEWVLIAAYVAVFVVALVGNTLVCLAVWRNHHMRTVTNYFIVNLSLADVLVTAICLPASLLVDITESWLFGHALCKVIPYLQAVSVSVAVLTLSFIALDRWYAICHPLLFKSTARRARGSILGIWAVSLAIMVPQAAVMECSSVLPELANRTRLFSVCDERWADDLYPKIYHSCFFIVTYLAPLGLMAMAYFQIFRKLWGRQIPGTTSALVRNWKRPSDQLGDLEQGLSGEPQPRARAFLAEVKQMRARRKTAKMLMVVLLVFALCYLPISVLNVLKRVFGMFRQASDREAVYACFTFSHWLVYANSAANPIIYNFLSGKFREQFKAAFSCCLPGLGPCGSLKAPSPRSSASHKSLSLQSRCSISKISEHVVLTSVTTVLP
# Text: as §1, §2
# [3] = target: T2, Human OX1 receptor; assay: IPone accumulation assay, CHO cells expressing OX1; assay type: cell-based; details: antagonism of orexin A (EC80 ~20 nM)-induced inositol phosphate turnover, read-out: fpKb average OX1 (converted)
# Procedure: Generation of CHO stable cell lines expressing the human OX1R and OX2R. Stable cell lines for the human OX1R and OX2R receptors were generated through the transfection of CHO cells using the transfection reagent Genejuice (Novagen number 70967) and cDNA coding for either the human OX1R or OX2R. Cells were cultured in Sigma Nutrient Mixture F-12 Ham media (catalog number N6658) supplemented with 10% heat-inactivated FBS. Forty-eight hours after transfection, cells were harvested and placed under geneticin selection by culturing in Sigma Nutrient Mixture F-12 Ham media supplemented with 10% heat-inactivated FBS and geneticin (ThermoFisher Catalog number: 10131035). Selection of the final stable clone for each receptor was made on the basis of receptor expression, assay signal to noise and robustness though increasing passage. Selected clones for the human OX1R and OX2R were then frozen down into liquid nitrogen using Cell Freezing Medium-DMSO (Sigma-Aldrich catalog number: C6164).
# (§3) IPone accumulation assay. A CHO cell line stably expressing either human OX1 or OX2 receptor was used with the IPone HTRF assay kit (CisBio: Part #62IPAPEJ) to measure receptor activation. The assay was optimised to measure the ability (potency; fpKb) of antagonists to reduce agonist (orexin A)-induced inositol phosphate turnover. Briefly, cells were plated onto half area 96-well white walled plates at a density of 12,500 cells/well. Sixteen hours post-plating cell growth media was replaced with antagonist concentration-response curve diluted in stimulation buffer (supplied with the kit). Cells were incubated in a humidified incubator (37° C.) for 30 min before an EC80 challenge concentration (˜20 nM (OX1) and 40 nM (OX2)) of orexin A (Tocris catalogue number 1455). After 30 min stimulation in a humidified incubator (37° C.) the assay was terminated by the addition of detection mixture as per manufacturer's instructions. The concentration of compound which reduced orexin-A stimulated turnover of inositol phosphates by 50% (IC50) was calculated by fitting to a four parameter sigmoidal dose response curve. The IC50 values were converted to fpKB values using the orexin A pEC50 value estimated on each plate as well as the challenge concentration interpolated from the orexin A control curve.
# [4] = target: T1, Human OX2 receptor; assay: IPone accumulation assay, CHO cells expressing OX2; assay type: cell-based; details: antagonism of orexin A (EC80 40 nM)-induced inositol phosphate turnover, read-out: fpKb average OX2 (converted)
# Procedure: as §3, with “Generation of CHO stable cell lines expressing the human OX1R and OX2R. Stable cell lines for the human OX1R and OX2R receptors were generated through the transfection of CHO cells using the transfection reagent Genejuice (Novagen number 70967) and cDNA coding for either the human OX1R or OX2R. Cells were cultured in Sigma Nutrient Mixture F-12 Ham media (catalog number N6658) supplemented with 10% heat-inactivated FBS. Forty-eight hours after transfection, cells were harvested and placed under geneticin selection by culturing in Sigma Nutrient Mixture F-12 Ham media supplemented with 10% heat-inactivated FBS and geneticin (ThermoFisher Catalog number: 10131035). Selection of the final stable clone for each receptor was made on the basis of receptor expression, assay signal to noise and robustness though increasing passage. Selected clones for the human OX1R and OX2R were then frozen down into liquid nitrogen using Cell Freezing Medium-DMSO (Sigma-Aldrich catalog number: C6164). IPone accumulation” for “IPone accumulation”, “(CisBio: Part #62[…]) to measure” for “(CisBio: Part #62IPAPEJ) to measure”, “challenge concentration ( 20 nM (OX1)” for “challenge concentration (˜20 nM (OX1)”
# T1 sequence (O43614 whole entry): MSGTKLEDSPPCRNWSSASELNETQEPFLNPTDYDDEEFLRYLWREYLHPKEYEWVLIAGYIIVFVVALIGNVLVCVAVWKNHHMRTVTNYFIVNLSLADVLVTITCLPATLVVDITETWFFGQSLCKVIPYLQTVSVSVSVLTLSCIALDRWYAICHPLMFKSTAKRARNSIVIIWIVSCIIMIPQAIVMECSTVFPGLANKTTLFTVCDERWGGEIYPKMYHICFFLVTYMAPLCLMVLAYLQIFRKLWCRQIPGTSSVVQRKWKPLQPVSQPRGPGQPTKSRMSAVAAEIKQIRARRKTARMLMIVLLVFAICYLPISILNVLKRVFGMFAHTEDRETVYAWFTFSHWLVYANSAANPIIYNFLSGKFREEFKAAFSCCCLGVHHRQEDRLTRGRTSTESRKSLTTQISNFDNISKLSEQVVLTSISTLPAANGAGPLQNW
Structure (SMILES),Kd ([1]; saturation isotherms) [nM],Kd ([2]; saturation isotherms) [nM],Kb [3] [nM],Kb [4] [nM],pKi average OX2 [1],pKi average OX1 [2]
"COc1cc(F)c(CN2C(=O)N(c3cnc(OC)c(OC)c3)S(=O)(=O)c3ccccc32)c(F)c1 [[^3H]-4-(2,6-difluoro-4-methoxybenzyl)-2-(5,6-dimethoxypyridin-3-yl)-2H-1,2,4-benzothiadiazin-3(4H)-one 1,1-dioxide, reference compound]",0.75,1.5,,,,
"CC(=O)Nc1ccc(-c2ncccn2)c(C(=O)N[C@H]2CCC[C@@H]2COc2ccc(F)cc2)c1F [Example 2, 3-acetamido-2-fluoro-N-[(1S,2S)-2-[(4-fluorophenoxy)methyl]cyclopentyl]-6-pyrimidin-2-yl-benzamide]",,,50.1,> 2510,5.6,7.7
"CC(=O)Nc1cnc(-n2nccn2)c(C(=O)N[C@H]2CCC[C@@H]2COc2ccc(F)cc2)c1 [Example 25, 5-acetamido-N-[(1S,2S)-2-[(4-fluorophenoxy)methyl]cyclopentyl]-2-(triazol-2-yl)pyridine-3-carboxamide]",,,3.98,> 631,5.5,8.5
"O=C(N[C@H]1CCC[C@@H]1COc1ccc(F)cc1)c1nc(NCCO)ccc1-n1nccn1 [Example 20, N-[(1S,2S)-2-[(4-fluorophenoxy)methyl]cyclopentyl]-6-(2-hydroxyethylamino)-3-(triazol-2-yl)pyridine-2-carboxamide]",,,7.94,> 501,5.8,8.4
"CC(=O)Nc1ccc(-n2nccn2)c(C(=O)N[C@H]2CCC[C@@H]2COc2ccc(F)c(F)c2)n1 [Example 9, 6-acetamido-N-[(1S,2S)-2-[(3,4-difluorophenoxy)methyl]cyclopentyl]-3-(triazol-2-yl)pyridine-2-carboxamide]",,,25.1,> 200,5.9,8.2
"CC(=O)Nc1ccc(-c2ncccn2)c(C(=O)N[C@H]2CCC[C@@H]2COc2ccc(F)cc2)n1 [Example 14, 6-acetamido-N-[(1S,2S)-2-[(4-fluorophenoxy)methyl]cyclopentyl]-3-pyrimidin-2-yl-pyridine-2-carboxamide]",,,3.98,> 398,6.0,8.3
"O=C(N[C@H]1CCC[C@@H]1COc1ccc(F)cc1)c1nc(NCC(F)F)ccc1-n1nccn1 [Example 19, 6-(2,2-difluoroethylamino)-N-[(1S,2S)-2-[(4-fluorophenoxy)methyl]cyclopentyl]-3-(triazol-2-yl)pyridine-2-carboxamide]",,,15.8,> 501,6.6,8.8
"Nc1ccc(-c2ncc(F)cn2)c(C(=O)N[C@H]2CCC[C@@H]2COc2ccc(F)cc2)n1 [Example 22, 6-amino-N-[(1S,2S)-2-[(4-fluorophenoxy)methyl]cyclopentyl]-3-(5-fluoropyrimidin-2-yl)pyridine-2-carboxamide]",,,7.94,> 1000,6.3,8.5
"CC(=O)Nc1ccc(-n2nccn2)c(C(=O)N(C)[C@H]2CCC[C@@H]2COc2ccc(F)cc2)n1 [Example 5, 6-acetamido-N-[(1S,2S)-2-[(4-fluorophenoxy)methyl]cyclopentyl]-N-methyl-3-(triazol-2-yl)pyridine-2-carboxamide]",,,3.16,> 1000,6.0,8.5
"O=C(N[C@H]1CCC[C@@H]1COc1ccc(F)cc1)c1nc(NC(=O)C2CC2)ccc1-n1nccn1 [Example 13, 6-(cyclopropanecarbonylamino)-N-[(1S,2S)-2-[(4-fluorophenoxy)methyl]cyclopentyl]-3-(triazol-2-yl)pyridine-2-carboxamide]",,,,> 1000,<6.0,7.8
"Nc1ccc(-c2ncccn2)c(C(=O)N[C@H]2CCC[C@@H]2COc2ccc(F)cc2)n1 [Example 12, 6-amino-N-[(1S,2S)-2-[(4-fluorophenoxy)methyl]cyclopentyl]-3-pyrimidin-2-yl-pyridine-2-carboxamide]",,,5.01,,,8.2
